# Results from ChEMBL document CHEMBL3739327, “Novel indole-based sigma-2 receptor ligands: synthesis, structureaffinity relationship and antiproliferative activity” (Medchemcomm, 2015).
# Active and inactive are the calls of the source. The calls are words filed in the database; no cut-off is given here.
# What was measured:
# [1] = molecular target: Sigma non-opioid intracellular receptor 1 (Rattus norvegicus, UniProt Q9R0C9); experiment: Displacement of [3H]-(+)-pentazocine from sigma 1 receptor in rat brain by competition binding assay; type: tissue-based
# Sequence of Sigma non-opioid intracellular receptor 1 (Rattus norvegicus, UniProt Q9R0C9) (Q9R0C9 whole entry): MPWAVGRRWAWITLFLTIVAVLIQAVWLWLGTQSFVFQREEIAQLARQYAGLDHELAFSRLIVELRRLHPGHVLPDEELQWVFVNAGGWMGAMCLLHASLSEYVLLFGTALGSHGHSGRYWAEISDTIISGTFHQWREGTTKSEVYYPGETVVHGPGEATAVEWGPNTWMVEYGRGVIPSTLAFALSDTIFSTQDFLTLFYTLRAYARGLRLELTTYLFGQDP
# Rattus norvegicus = species: Rattus norvegicus; experiment: Selectivity ratio of Ki for sigma 1 receptor in rat brain to Ki for sigma 2 receptor in rat liver membrane; type: cell membranes
# [2] = Displacement of [3H]-DTG from sigma 2 receptor in rat liver membrane by competition binding assay in presence of dextrallorphan; type: cell membranes
# [3] = Cell cycle arrest in human DU145 cells assessed as accumulation at S phase at 30 uM after 24 hrs by propidium iodide staining-based flow cytometry (reference value: 38.6 %); type: functional; details: DU-145
# [4] = Antiproliferative activity against human DU145 cells assessed as reduction in cell viability after 24 hrs by MTT assay; type: functional, cell-based; details: DU-145, 24 h
# C6 = experiment: Antiproliferative activity against rat C6 cells assessed as reduction in cell viability after 24 hrs by MTT assay; type: functional, cell-based; details: C6, 24 h
# [5] = Cell cycle arrest in human DU145 cells assessed as accumulation at G1 phase after 24 hrs by propidium iodide staining-based flow cytometry; type: functional; details: DU-145
# [6] = Cell cycle arrest in human DU145 cells assessed as accumulation at G1 phase at 30 uM after 24 hrs by propidium iodide staining-based flow cytometry (reference value: 58.2 %); type: functional; details: DU-145
# MCF7 [7] = experiment: Antiproliferative activity against human MCF7 cells assessed as reduction in cell viability after 24 hrs by MTT assay; type: functional, cell-based; details: MCF7, 24 h
# MDA-MB-435 [8] = experiment: Induction of apoptosis in human MDA-MB-435 cells assessed as decreased cyclin D1 expression at 10 uM incubated for 24 hrs by Western blot analysis; type: functional, cell-based; details: TDE = time-dependent effect
# MCF7 [9] = experiment: Antiproliferative activity against human MCF7 cells assessed as reduction in cell viability after 48 hrs by MTT assay; type: functional, cell-based; details: MCF7, 48 h
# MDA-MB-435 [10] = experiment: Induction of apoptosis in human MDA-MB-435 cells assessed as decreased phospho-Rb expression at 10 uM incubated for 24 hrs by Western blot analysis; type: functional, cell-based
# MDA-MB-435 [11] = experiment: Induction of apoptosis in human MDA-MB-435 cells assessed as decreased cyclin B1 expression at 10 uM incubated for 24 hrs by Western blot analysis; type: functional, cell-based
# [12] = Displacement of [3H]-DTG from sigma 2 receptor in rat brain by competition binding assay; type: tissue-based
# [13] = molecular target: Sigma non-opioid intracellular receptor 1 (Cavia porcellus, UniProt Q60492); experiment: Displacement of [3H]-(+)-pentazocine from sigma-1 receptor in guinea pig brain membrane by competition binding assay; type: cell membranes
# Sequence of Sigma non-opioid intracellular receptor 1 (Cavia porcellus, UniProt Q60492) (Q60492 whole entry): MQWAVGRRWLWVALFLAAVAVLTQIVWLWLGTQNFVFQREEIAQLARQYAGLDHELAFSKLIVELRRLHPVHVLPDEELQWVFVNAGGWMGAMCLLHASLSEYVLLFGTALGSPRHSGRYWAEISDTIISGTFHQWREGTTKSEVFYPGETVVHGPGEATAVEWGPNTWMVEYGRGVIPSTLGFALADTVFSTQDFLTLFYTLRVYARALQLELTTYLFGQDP
# [14] = Cell cycle arrest in human DU145 cells assessed as accumulation at G1 phase at 15 to 25 uM after 24 hrs by propidium iodide staining-based flow cytometry (reference value: 58.2 %); type: functional; details: DU-145
# [15] = Selectivity ratio of Ki for sigma 1 receptor in guinea pig brain membrane to Ki for sigma 2 receptor in rat liver membrane; type: cell membranes
# [16] = Cell cycle arrest in human DU145 cells assessed as accumulation at S phase at 40 uM after 24 hrs by propidium iodide staining-based flow cytometry (reference value: 38.6 %); type: functional; details: DU-145
# [17] = Cell cycle arrest in human DU145 cells assessed as accumulation at G1 phase at 40 uM after 24 hrs by propidium iodide staining-based flow cytometry (reference value: 58.2 %); type: functional; details: DU-145
Compound,Ki [1] [nM],Ratio Ki (Rattus norvegicus),Ki [2] [nM],other results
COc1cc2c(cc1OC)CN(CCCCn1cc(CCCF)c3ccccc31)CC2,263,9.2,28.5,–
N#CC1(c2ccccc2)CCN(CCCCc2cn(-c3ccc(F)cc3)c3ccccc23)CC1,2.58,0.9,3.03,–
N#CC1(c2ccccc2)CCN(CCCCc2cn(-c3ccc(I)cc3)c3ccccc23)CC1,386,20.9,18.5,–
COc1cc2c(cc1OC)CN(CCCCC(=O)c1ccc(F)cc1)CC2,16.6,1.3,12.4,–
FCCOCCOc1ccc(N2CCN(CCCCc3cn(-c4ccc(F)cc4)c4ccccc34)CC2)cc1,1110,2.4,458,–
Fc1ccc(-n2cc(CCCCN3CCC4(CC3)OCc3ccccc34)c3ccccc32)cc1 [SIRAMESINE],–,–,3.08,Activity (MDA-MB-435 [8]): tde; EC50 (MCF7 [9]): 12300 nM; Activity (MDA-MB-435 [10]): Active; EC50 [4]: 13900 nM; EC50 (C6): 43100 nM; Activity [5]: Dose-dependent effect; Activity (MDA-MB-435 [11]): Active; IC50 [12]: 0.12 nM; EC50 (MCF7 [7]): 23600 nM; Ki [13]: 10.5 nM; Activity [14]: 75.7%

# Further lines, with some results ahead:
Ki [1] [nM],Ratio Ki (Rattus norvegicus),Ki [2] [nM],Compound,other results
614,9,68,FCCOc1ccc(N2CCN(CCCCc3cn(-c4ccc(F)cc4)c4ccccc34)CC2)cc1,–
11,0.4,29.8,FCCc1cn(CCCCN2CCC3(CC2)OCc2ccccc23)c2ccccc12,–
257,5.3,48.4,FCCOc1cccc(N2CCN(CCCCc3cn(-c4ccc(F)cc4)c4ccccc34)CC2)c1,–
256,4.8,53.8,COc1cc2c(cc1OC)CN(CCCCc1cn(-c3ccc(F)cc3)c3ccccc13)C2,Activity [3]: 19.3%; EC50 [4]: 26900 nM; EC50 (C6): 44100 nM; Activity [5]: Dose-dependent effect; Activity [6]: 80.5%; EC50 (MCF7 [7]): 17000 nM
246,5.6,44,FCCn1cc(CCCCN2CCC3(CC2)OCc2ccccc23)c2ccccc21,–
531,10.8,49.2,COc1cc2c(cc1OC)CN(CCCCc1cn(-c3ccc(F)cc3)c3ccccc13)CC2,Ratio Ki [15]: 260; EC50 (MCF7 [9]): 17800 nM; EC50 [4]: 28800 nM; EC50 (C6): 76500 nM; Activity [5]: Dose-dependent effect; Activity [16]: 15.9%; EC50 (MCF7 [7]): 20900 nM; Activity [17]: 84.1%
2160,1.1,1880,FCCOCCOCCOc1ccc(N2CCN(CCCCc3cn(-c4ccc(F)cc4)c4ccccc34)CC2)cc1,–
493,17.9,27.5,COc1cc2c(cc1OC)CN(CCCCn1cc(CCF)c3ccccc31)CC2,–
